# Measured values published in patent US10023592B2, “Bromodomain inhibitors” (Celgene Quanticel Research, Inc., priority 2013, dated 2018).
# How the values were obtained:
# [1] = test system: HL-60, human proleukemia cells; assay: Cell-MTS proliferation assay, HL-60; type: cell-based; conditions: Homo sapiens, 168 hr
# Outline: (§1)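 Seven-day colorimetric MTS assay; compound at 11 concentrations from 100 μM down to 2.0 nM final, added a day after plating. IC50 from OD490 normalised to DMSO controls.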
# [2] = test system: NCI-H460, human non-small cell lung cancer cells; assay: Cell-MTS proliferation assay, NCI-H460; type: cell-based; conditions: Homo sapiens, 168 hr
# Outline: as §1
# [3] = test system: Raji, human Burkitts lymphoma cells; assay: Cell-MTS proliferation assay, Raji; type: cell-based; conditions: Homo sapiens, 168 hr
# Outline: as §1
# BRD4(BD1) = BRD4(BD1) (Homo sapiens (Human), UniProt O60885); assay: In vitro enzyme inhibition assay (BRD4 AlphaScreen); type: binding
# Outline: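 AlphaScreen proximity readout, using streptavidin donor and Ni-chelate acceptor beads at 5 μg/mL final, monitors biotin-H4 tetraacetylated peptide interaction with purified His-tagged BRD4.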
# [4] = NCI-H460, Cell-MTS proliferation
# [5] = in vitro enzyme inhibition assay
# [6] = Cell-MTS proliferation, HL-60 cells
# [7] = Cell-MTS proliferation, NCI-H460 cells
# [8] = Cell-MTS proliferation, Raji cells
# [9] = HL-60, Cell-MTS, class symbols A/B/C
# [10] = NCI-H460, Cell-MTS, class symbols A/B/C
# [11] = Raji, Cell-MTS, class symbols A/B/C
Compound,"IC50 ([1]; HL-60, Cell-MTS proliferation)","IC50 [2, 4]","IC50 ([3]; Raji, Cell-MTS proliferation)",IC50 (BRD4(BD1); [5]),"IC50 [1, 6]","IC50 [2, 7]","IC50 [3, 8]","IC50 [1, 9]","IC50 [2, 10]","IC50 [3, 11]",IC50 (BRD4(BD1); class symbols A/B/C)
"CCS(=O)(=O)Nc1ccc(Oc2ccc(F)cc2F)c(-c2cn(C)c(=O)c3oc(C)cc23)c1 [Example 269, N-[4-(2,4-difluorophenoxy)-3-(2,6-dimethyl-7-oxofuro[2,3-c]pyridin-4-yl)phenyl]ethanesulfonamide]",< 500 nM,> 5000 nM,< 500 nM,< 500 nM,,,,,,,
"Cn1cc(-c2cc(NS(C)(=O)=O)ccc2Oc2ccc(F)cc2F)n2cncc2c1=O [Example 367, N-[4-(2,4-difluorophenoxy)-3-(7-methyl-8-oxoimidazo[1,5-a]pyrazin-5-yl)phenyl]methanesulfonamide]",< 500 nM,> 5000 nM,< 500 nM,< 500 nM,,,,,,,
"Cn1cc(-c2nc(NS(C)(=O)=O)ncc2OCC2CC2)c2ccc(F)cc2c1=O [Example 158, N-[5-(cyclopropylmethoxy)-4-(7-fluoro-2-methyl-1-oxoisoquinolin-4-yl)pyrimidin-2-yl]methanesulfonamide]",< 500 nM,> 5000 nM,< 500 nM,< 500 nM,,,,,,,
"CCS(=O)(=O)c1ccc(OCC2CC2)c(-c2cc(C3CC3)c(=O)n(C)c2)c1 [Example 280, 3-cyclopropyl-5-[2-(cyclopropylmethoxy)-5-ethylsulfonylphenyl]-1-methylpyridin-2-one]",< 500 nM,> 5000 nM,< 500 nM,< 500 nM,,,,,,,
"CCS(=O)(=O)c1ccc(Nc2ccc(F)cc2F)c(-c2cc(C)c(=O)n(C)c2)c1 [Example 396, 5-[2-(2,4-difluoroanilino)-5-ethylsulfonylphenyl]-1,3-dimethylpyridin-2-one]",,,,< 500 nM,< 500 nM,> 5000 nM,< 500 nM,,,,
"CCS(=O)(=O)c1cc(-c2cn(C)c(=O)c3ccccc23)c(NCC2CC2)s1 [Example 205, 4-[2-(cyclopropylmethylamino)-5-ethylsulfonylthiophen-3-yl]-2-methylisoquinolin-1-one]",500 to 5000 nM,> 5000 nM,500 to 5000 nM,< 500 nM,,,,,,,
"Cc1cc(-c2cc(NS(C)(=O)=O)ccc2OC2CCC(F)(F)CC2)cn(C)c1=O [Example 447, N-[4-(4,4-difluorocyclohexyl)oxy-3-(1,5-dimethyl-6-oxopyridin-3-yl)phenyl]methanesulfonamide]",,,,< 500 nM,< 500 nM,> 5000 nM,< 500 nM,,,,
"CCS(=O)(=O)Nc1ncc(OCC2CC2)c(-c2cn(C)c(=O)c3ccc(F)cc23)n1 [Example 157, N-[5-(cyclopropylmethoxy)-4-(6-fluoro-2-methyl-1-oxoisoquinolin-4-yl)pyrimidin-2-yl]ethanesulfonamide]",< 500 nM,> 5000 nM,< 500 nM,< 500 nM,,,,,,,
"Cc1cc(-c2cc(S(C)(=O)=O)ccc2NC2CCCC2)cn(C)c1=O [Example 417, 5-[2-(cyclopentylamino)-5-methylsulfonylphenyl]-1,3-dimethylpyridin-2-one]",,,,< 500 nM,< 500 nM,> 5000 nM,< 500 nM,,,,
"COc1cc(-c2cc(NS(C)(=O)=O)ccc2Oc2ccc(F)cc2F)cn(C)c1=O [Example 442, N-[4-(2,4-difluorophenoxy)-3-(5-methoxy-1-methyl-6-oxopyridin-3-yl)phenyl]methanesulfonamide]",,,,< 500 nM,< 500 nM,> 5000 nM,< 500 nM,,,,
"CCS(=O)(=O)c1ccc(OCC2CC2)c(-c2cc(C)c(=O)n(C)c2)c1 [Example 450, 5-[2-(cyclopropylmethoxy)-5-ethylsulfonylphenyl]-1,3-dimethylpyridin-2-one]",,,,< 500 nM,< 500 nM,> 5000 nM,< 500 nM,,,,
"Cc1cc(-c2cc(S(C)(=O)=O)ccc2OC2CCCC2)cn(C)c1=O [Example 419, 5-(2-cyclopentyloxy-5-methylsulfonylphenyl)-1,3-dimethylpyridin-2-one]",,,,< 500 nM,< 500 nM,> 5000 nM,500 to 5000 nM,,,,
"CCS(=O)(=O)Nc1ccc(OCC2CC2)c(-c2cn(C)c(=O)c3occc23)c1 [Example 255, N-[4-(cyclopropylmethoxy)-3-(6-methyl-7-oxofuro[2,3-c]pyridine-4-yl)phenyl]ethanesulfonamide]",< 500 nM,> 5000 nM,< 500 nM,< 500 nM,,,,,,,
"COc1ccc(-c2cc(N)c(=O)n(C)c2)cc1NS(C)(=O)=O [Example 109, N-[5-(5-amino-1-methyl-6-oxopyridin-3-yl)-2-methoxyphenyl]methanesulfonamide]",,,,,,,,> 5000 nM,> 5000 nM,> 5000 nM,500 to 5000 nM
"Cn1cc(-c2cc(S(C)(=O)=O)ccc2OCC2CC2)cc(N)c1=O [Example 116, 3-amino-5-[2-(cyclopropylmethoxy)-5-methylsulfonylphenyl]-1-methylpyridin-2-one]",,,,,,,,500 to 5000 nM,> 5000 nM,> 5000 nM,< 500 nM
"CC(C)n1cc(Oc2cc(-c3cc(S(C)(=O)=O)ccc3OCC3CC3)cn(C)c2=O)cn1 [Example 294, 5-[2-(cyclopropylmethoxy)-5-methylsulfonylphenyl]-1-methyl-3-(1-propan-2-ylpyrazol-4-yl)oxypyridin-2-one]",500 to 5000 nM,> 5000 nM,> 5000 nM,< 500 nM,,,,,,,
"Cc1cc(-c2cc(S(C)(=O)=O)ccc2OCC2CCC2)cn(C)c1=O [Example 459, 5-[2-(cyclobutylmethoxy)-5-methylsulfonylphenyl]-1,3-dimethylpyridin-2-one]",,,,< 500 nM,< 500 nM,> 5000 nM,< 500 nM,,,,
"COc1cc(F)c(CS(C)(=O)=O)cc1-c1cn(C)c(=O)c2ccc(-c3cnn(C)c3)cc12 [Example 88, 4-[4-fluoro-2-methoxy-5-(methylsulfonylmethyl)phenyl]-2-methyl-6-(1-methylpyrazol-4-yl)isoquinolin-1-one]",,,,,,,,< 500 nM,> 5000 nM,< 500 nM,< 500 nM
"CCS(=O)(=O)c1ccc(OCC2CC2)c(-c2cc(C)c(=O)n(C3CC3)c2)c1 [Example 251, 1-cyclopropyl-5-[2-(cyclopropylmethoxy)-5-ethylsulfonylphenyl]-3-methylpyridin-2-one]",< 500 nM,> 5000 nM,500 to 5000 nM,< 500 nM,,,,,,,
"CCS(=O)(=O)c1ccc(OCC2CC2)c(-c2cc(OC)c(=O)n(C)c2)c1 [Example 399, 5-[2-(cyclopropylmethoxy)-5-ethylsulfonylphenyl]-3-methoxy-1-methylpyridin-2-one]",,,,< 500 nM,< 500 nM,> 5000 nM,< 500 nM,,,,
"CCS(=O)(=O)Nc1ccc(Oc2ccc(F)cc2F)c(-c2cc(OC(F)F)c(=O)n(C)c2)c1 [Example 289, N-[3-[5-(difluoromethoxy)-1-methyl-6-oxopyridin-3-yl]-4-(2,4-difluorophenoxy)phenyl]ethanesulfonamide]",< 500 nM,> 5000 nM,< 500 nM,< 500 nM,,,,,,,
"COc1ccc(-c2cn(C)c(=O)c3cc(F)ccc23)cc1S(=O)(=O)NCc1ccccc1 [Example 60, N-benzyl-5-(7-fluoro-2-methyl-1-oxoisoquinolin-4-yl)-2-methoxybenzenesulfonamide]",,,,,,,,500 to 5000 nM,> 5000 nM,< 500 nM,500 to 5000 nM
"Cc1cc(-c2cn(CS(C)(=O)=O)c(=O)cc2OCC2CC2)cn(C)c1=O [Example 382, 5-[4-(cyclopropylmethoxy)-1-(methylsulfonylmethyl)-6-oxopyridin-3-yl]-1,3-dimethylpyridin-2-one]",,,,< 500 nM,< 500 nM,> 5000 nM,500 to 5000 nM,,,,
"Cn1cc(-c2cc(S(C)(=O)=O)ccc2NC(=O)C2CC2)c2ccccc2c1=O [Example 220, N-[2-(2-methyl-1-oxoisoquinolin-4-yl)-4-methylsulfonylphenyl]cyclopropanecarboxamide]",> 5000 nM,> 5000 nM,> 5000 nM,500 to 5000 nM,,,,,,,
"Cc1cc(-c2cc(OCc3ccccc3)cc(S(C)(=O)=O)c2)cn(C)c1=O [Example 324, 1,3-dimethyl-5-(3-methylsulfonyl-5-phenylmethoxyphenyl)pyridin-2-one]",< 500 nM,> 5000 nM,500 to 5000 nM,< 500 nM,,,,,,,
"CCS(=O)(=O)c1ccc(OCC2CC2)c(-c2cn(C)c(=O)c3ccc(-c4cnn(C)c4)cc23)c1 [Example 82, 4-[2-(cyclopropylmethoxy)-5-ethylsulfonylphenyl]-2-methyl-6-(1-methylpyrazol-4-yl)isoquinolin-1-one]",,,,,,,,< 500 nM,500 to 5000 nM,< 500 nM,< 500 nM
"CCS(=O)(=O)Nc1ccc(Oc2ccc(F)cc2F)c(-c2cc(Cl)c(=O)n(C)c2)c1 [Example 134, N-[3-(5-chloro-1-methyl-6-oxopyridin-3-yl)-4-(2,4-difluorophenoxy)phenyl]ethanesulfonamide]",,,,,,,,< 500 nM,500 to 5000 nM,< 500 nM,< 500 nM
"CCS(=O)(=O)c1ccc(Oc2ccc(F)cc2F)c(-c2cc(F)c(=O)n(C)c2)c1 [Example 121, 5-[2-(2,4-difluorophenoxy)-5-ethylsulfonylphenyl]-3-fluoro-1-methylpyridin-2-one]",,,,,,,,< 500 nM,> 5000 nM,500 to 5000 nM,< 500 nM
